Experimental data as given in patent publication US20250188082A1, “Use of Hypoxanthine Compound In Preparation of Drug For Treating Pulmonary Fibrosis” (Sichuan Yiasuo Pharmaceutical Technology Co., Ltd., priority 2022, published 2025).

The compounds below were run on bleomycin-induced pulmonary fibrosis model (assay: Comparison with comparative drugs: bleomycin-induced model, hydroxyproline and TGF-β). Conditions: 120 mg/kg/d intragastric, twice every day, 14 days, from two weeks after model; Day 15.
Type: in vivo, C57BL/6 mice

Compound | Hydroxyproline in bronchoalveolar lavage fluids | Hydroxyproline in lung tissues | TGF-β in bronchoalveolar lavage fluids | TGF-β in lung tissues
CC(C)n1cnc2c(ncn2C(C)C)c1=O [Compound E-3] | 1.03 ± 0.29 µg/mg | 2.15 ± 0.23 µg/mg | 6.35 ± 0.28 µg/L | 62.54 ± 1.28 µg/L
CC(C)n1cnc2c(=O)[nH]cnc21 [Compound E-1] | 1.14 ± 0.16 µg/mg | 2.18 ± 0.32 µg/mg | 6.51 ± 0.24 µg/L | 63.95 ± 2.19 µg/L
CC(C)n1cnc2c(=S)[nH]cnc21 [Compound E-4] | 1.14 ± 0.18 µg/mg | 1.98 ± 0.44 µg/mg | 6.84 ± 0.95 µg/L | 63.58 ± 2.95 µg/L
CC(C)n1cnc2c(ncn2C(C)C)c1=S [Hypoxanthine analogue D] | 1.94 ± 0.13 µg/mg | 2.15 ± 0.35 µg/mg | 6.42 ± 1.02 µg/L | 93.36 ± 8.51 µg/L
CC(C)n1cnc2c(=O)n(C)cnc21 [Compound E-6] | 1.18 ± 0.15 µg/mg | 2.35 ± 0.24 µg/mg | 6.14 ± 0.85 µg/L | 63.56 ± 6.54 µg/L
CC(C)n1cnc2[nH]cnc2c1=S [Compound E-5] | 1.17 ± 0.16 µg/mg | 2.15 ± 0.35 µg/mg | 6.51 ± 0.86 µg/L | 65.82 ± 3.54 µg/L
CC(C)n1cnc2[nH]cnc2c1=O [Compound E-2] | 1.16 ± 0.28 µg/mg | 1.93 ± 0.24 µg/mg | 6.21 ± 0.24 µg/L | 66.56 ± 1.95 µg/L
CC(C)n1cnc2[nH]cnc2c1=N [Compound E-8] | 1.06 ± 0.19 µg/mg | 2.03 ± 0.51 µg/mg | 6.51 ± 0.58 µg/L | 68.54 ± 2.25 µg/L
CC(C)n1cnc2c(=N)[nH]cnc21 [Compound E-7] | 1.15 ± 0.18 µg/mg | 1.99 ± 0.25 µg/mg | 6.38 ± 0.95 µg/L | 68.25 ± 2.58 µg/L
